Data taken from patent US7125990B2, “Imidazolyl derivatives as corticotropin releasing factor inhibitors” (Bristol-Myers Squibb COmpany, priority 2001, dated 2006).

Each molecule was assayed against T1, CRF1 receptors (Homo sapiens, UniProt P34998) (assay: CRF1 receptor radioligand binding assay ([125I]-oCRF competition, IMR-32 cell membranes)). Details: IMR-32 cell membranes, [125I]-oCRF 100 pM; read-out: Ki (CRF-1R).
T1 construct: endogenous in cells; host or cells: IMR-32 cells, transformed with 2.5 µM 5'-bromo-2'-deoxyuridine for 10 days; membrane preparation
T1 sequence (P34998 24-415): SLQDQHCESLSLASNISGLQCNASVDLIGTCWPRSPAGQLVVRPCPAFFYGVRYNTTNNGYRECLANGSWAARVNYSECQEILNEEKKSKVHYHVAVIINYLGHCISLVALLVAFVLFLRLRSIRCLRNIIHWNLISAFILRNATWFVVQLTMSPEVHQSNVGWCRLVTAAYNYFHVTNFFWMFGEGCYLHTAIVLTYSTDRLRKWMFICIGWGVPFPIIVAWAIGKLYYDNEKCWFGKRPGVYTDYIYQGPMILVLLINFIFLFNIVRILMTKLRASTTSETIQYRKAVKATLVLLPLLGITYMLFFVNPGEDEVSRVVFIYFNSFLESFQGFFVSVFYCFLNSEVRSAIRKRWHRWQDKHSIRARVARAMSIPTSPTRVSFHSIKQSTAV
How it was run: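 Buffer: Tris pH 7.2 with MgCl2, BSA, Triton X-100, aprotinin, leupeptin; reaction stopped with ice-cold wash and filtered. Nonspecific binding set with 10 μM oCRF.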

| SMILES | Ki |
| --- | --- |
| C=CCN(CC=C)Cc1c(C(F)(F)F)nc2n(-c3c(C)cc(C)cc3C)c3ccccc3n12 [Example 160, Diallyl-[2-trifluoromethyl-8-(2,4,6-trimethyl-phenyl)-8H-1,3a,8-triaza-cyclopenta[α]inden-3-ylmethyl]-amine] | < 1000 nM |
| CCN(CCC1CC1)Cc1c(C(F)(F)F)nc2n(-c3c(C)cc(C)cc3C)c3ccccc3n12 [Example 172, (2-Cyclopropyl-ethyl)-ethyl-[2-trifluoromethyl-8-(2,4,6-trimethyl-phenyl)-8H-1,3a,8-triaza-cyclopenta[α]inden-3-ylmethyl]-amine] | < 10000 nM |
| CCCN(CCC(F)(F)F)Cc1c(C(F)(F)F)nc2n1CCCN2c1c(C)cc(C)cc1C [Example 78, Propyl-[2-trifluoromethyl-8-(2,4,6-trimethyl-phenyl)-5,6,7,8-tetrahydro-imidazo[1,2-a]pyrimidin-3-ylmethyl]-(3,3,3-trifluoro-propyl)-amine] | < 1000 nM |
| Cc1cc(C)c(N2CCCn3c2nc(C(F)(F)F)c3CN(CCC(F)(F)F)Cc2ccccc2)c(C)c1 [Example 86, Benzyl-[2-trifluoromethyl-8-(2,4,6-trimethyl-phenyl)-5,6,7,8-tetrahydro-imidazo[1,2-a]pyrimidin-3-ylmethyl]-(3,3,3-trifluoro-propyl)-amine] | < 1000 nM |
| CC(C)c1ccc(-n2c3ccccc3n3c(CN(CCC(F)(F)F)Cc4ccc(F)cc4)c(C(F)(F)F)nc23)c(Br)c1 [Example 199, [8-(2-Bromo-4-isopropyl-phenyl)-2-trifluoromethyl-8H-1,3a,8-triaza-cyclopenta[α]inden-3-ylmethyl]-(4-fluoro-benzyl)-(3,3,3-trifluoro-propyl)-amine] | < 10000 nM |
| CCCN(Cc1c(C(F)(F)F)nc2n(-c3c(C)cc(C)cc3C)c(Cl)cn12)CC1CC1 [Example 303, [6-Chloro-2-trifluoromethyl-7-(2,4,6-trimethyl-phenyl)-7H-imidazo[1,2-a]imidazol-3-ylmethyl]-cyclopropylmethyl-propyl-amine] | < 10 nM |
| Cc1cc(C)c(-n2c3ccccc3n3c(CN(CCc4ccccc4)CC(F)(F)F)c(C(F)(F)F)nc23)c(C)c1 [Example 171, Phenethyl-(2,2,2-trifluoro-ethyl)-[2-trifluoromethyl-8-(2,4,6-trimethyl-phenyl)-8H-1,3a,8-triaza-cyclopenta[α]inden-3-ylmethyl]-amine] | < 1000 nM |
| CCC=C(CCC)c1c(CC)nc2n1CCN2c1c(C)cc(C)cc1Cl [Example 50, 1-(2-Chloro-4,6-dimethyl-phenyl)-6-ethyl-5-(1-propyl-but-1-enyl)-2,3-dihydro-1H-imidazo[1,2-a]imidazole] | < 100 nM |
| Cc1cc(C)c(N2CCCn3c2nc(C(F)(F)F)c3CN(C)CCc2ccccc2)c(C)c1 [Example 66, Methyl-phenethyl-[2-trifluoromethyl-8-(2,4,6-trimethyl-phenyl)-5,6,7,8-tetrahydro-imidazo[1,2-a]pyrimidin-3-ylmethyl]-amine] | < 1000 nM |
| CCCCN(CC)Cc1c(C(F)(F)F)nc2n1CCCN2c1c(C)cc(C)cc1C [Example 70, Butyl-ethyl-[2-trifluoromethyl-8-(2,4,6-trimethyl-phenyl)-5,6,7,8-tetrahydro-imidazo[1,2-a]pyrimidin-3-ylmethyl]-amine] | < 1000 nM |
| CCCN(Cc1c(C(F)(F)F)nc2n(-c3ccc(C(C)C)cc3Br)c3ccccc3n12)CC1CCC1 [Example 195, [8-(2-Bromo-4-isopropyl-phenyl)-2-trifluoromethyl-8H-1,3a,8-triaza-cyclopenta[α]inden-3-ylmethyl]-cyclobutylmethyl-propyl-amine] | < 1000 nM |
| C=CCN(CCC)Cc1c(C(F)(F)F)nc2n(-c3ccc(C(C)C)cc3Br)c3ccccc3n12 [Example 198, Allyl-[8-(2-bromo-4-isopropyl-phenyl)-2-trifluoromethyl-8H-1,3a,8-triaza-cyclopenta[α]inden-3-ylmethyl]-propyl-amine] | < 1000 nM |
| CCCN(CC1CC1)C(=O)c1c(CC)nc2n1CCN2c1c(C)cc(C)cc1C [Example 2, 2-Ethyl-7-(2,4,6-trimethyl-phenyl)-6,7-dihydro-5H-imidazo[1,2-α]imidazole-3-carboxylic acid cyclopropylmethyl-propyl-amide] | < 100 nM |
| CCCN(CC1CCC1)C(=O)c1c(CC)nc2n1CCN2c1ccc(C(C)C)cc1Br [Example 38, 7-(2-Bromo-4-isopropyl-phenyl)-2-ethyl-6,7-dihydro-5H-imidazo[1,2-a]imidazole-3-carboxylic acid cyclobutylmethyl-propyl-amide] | < 10000 nM |
| CCCCN(CC)C(=O)c1c(CC)nc2n(-c3c(C)cc(C)cc3C)c(Cl)cn12 [Example 291, 6-Chloro-2-ethyl-7-(2,4,6-trimethylphenyl)-7H-imidazo[1,2-a]imidazole-3-carboxylic acid N-butyl-N-ethylamide] | < 100 nM |
| CCc1nc2n(c1C(=O)N(CCC(F)(F)F)CC1CC1)CCN2c1c(C)cc(C)cc1Cl [Example 29, 7-(2-Chloro-4,6-dimethyl-phenyl)-2-ethyl-6,7-dihydro-5H-imidazo[1,2 a]imidazole-3-carboxylic acid cyclopropylmethyl-(3,3,3-trifluoro-propyl)-amide] | < 1000 nM |
| CCc1nc2n(-c3c(C)cc(C)cc3C)c3ncccc3n2c1CN(CC)CC1CC1 [Example 250, Cyclopropylmethyl-ethyl-[2-ethyl-8-(2,4,6-trimethyl-phenyl)-8H-1,3a,7,8-tetraaza-cyclopenta[α]inden-3-ylmethyl]-amine] | < 1000 nM |
| CCCN(Cc1c(C(F)(F)F)nc2n(-c3c(C)cc(C)cc3C)c3ccccc3n12)CC(F)(F)C(F)(F)F [Example 158, (2,2,3,3,3-Pentafluoro-propyl)-propyl-[2-trifluoromethyl-8-(2,4,6-trimethyl-phenyl)-8H-1,3a,8-triaza-cyclopenta[α]inden-3-ylmethyl]-amine] | < 100 nM |
| Cc1cc(C)c(N2CCCn3c2nc(C(F)(F)F)c3CN(CCC(F)(F)F)Cc2ccc(F)cc2)c(Cl)c1 [Example 127, [8-(2-Chloro-4,6-dimethyl-phenyl)-2-trifluoromethyl-5,6,7,8-tetrahydro-imidazo[1,2-a]pyrimidin-3-ylmethyl]-(4-fluoro-benzyl)-(3,3,3-trifluoro-propyl)-amine] | < 1000 nM |
| CCCN(CC1CC1)C(=O)c1c(CC)nc2n(-c3ccc(C(C)C)cc3Br)c(Cl)cn12 [Example 285, 6-Chloro-2-ethyl-7-(2-bromo-4-isopropylphenyl)-7H-imidazo[1,2-a]imidazole-3-carboxylic acid N-cyclopropylmethyl-N-propylamide] | < 1000 nM |
| C=CCN(CCC)C(=O)c1c(CC)nc2n1CCN2c1c(C)cc(C)cc1C [Example 19, 2-Ethyl-7-(2,4,6-trimethyl-phenyl)-6,7-dihydro-5H-imidazo[1,2-a]imidazole-3-carboxylic acid allyl-propyl-amide] | < 1000 nM |
| CCCN(CCC)Cc1c(C(F)(F)F)nc2n(-c3c(C)cc(C)cc3C)c(Cl)cn12 [Example 344, [6-Chloro-2-trifluoromethyl-7-(2,4,6-trimethyl-phenyl)-7H-imidazo[1,2-a]imidazol-3-ylmethyl]-dipropyl-amine] | < 100 nM |
| Cc1cc(C)c(-n2c(Cl)cn3c(CN(CCC(F)(F)F)Cc4cccc(F)c4)c(C(F)(F)F)nc23)c(C)c1 [Example 343, [6-Chloro-2-trifluoromethyl-7-(2,4,6-trimethyl-phenyl)-7H-imidazo[1,2-a]imidazol-3-ylmethyl]-(3-fluoro-benzyl)-(3,3,3-trifluoro-propyl)-amine] | < 100 nM |
| CCCN(CCC(F)(F)F)Cc1c(C(F)(F)F)nc2n(-c3c(C)cc(C)cc3C)c3ncccc3n12 [Example 221, Propyl-[2-trifluoromethyl-8-(2,4,6-trimethyl-phenyl)-8H-1,3a,7,8-tetraaza-cyclopenta[α]inden-3-ylmethyl]-(3,3,3-trifluoro-propyl)-amine] | < 1000 nM |
| CCCN(CCOC)Cc1c(C(F)(F)F)nc2n1CCCN2c1c(C)cc(C)cc1Cl [Example 110, [8-(2-Chloro-4,6-dimethyl-phenyl)-2-trifluoromethyl-5,6,7,8-tetrahydro-imidazo[1,2-a]pyrimidin-3-ylmethyl]-(2-methoxy-ethyl)-propyl-amine] | < 1000 nM |
| CCc1nc2n(-c3c(C)cc(C)cc3C)c(Cl)cn2c1CN(CC)CC1CC1 [Example 299, 3-[(N-Cyclopropylmethyl-N-ethylamino)methyl]-6-chloro-2-ethyl-7-(2,4,6-trimethylphenyl)-7H-imidazo[1,2-a]imidazole] | < 100 nM |
| CCc1nc2n(c1C(=O)N(CCc1ccccc1)CCC(F)(F)F)CCN2c1c(C)cc(C)cc1C [Example 23, 2-Ethyl-7-(2,4,6-trimethyl-phenyl)-6,7-dihydro-5H-imidazo[1,2-a]imidazole-3-carboxylic acid phenethyl-(3,3,3-trifluoro-propyl)-amide] | < 10000 nM |
| CCCN(Cc1c(C(F)(F)F)nc2n1CCCN2c1c(C)cc(C)cc1C)CC1CCC1 [Example 77, Cyclobutylmethyl-propyl-[2-trifluoromethyl-8-(2,4,6-trimethyl-phenyl)-5,6,7,8-tetrahydro-imidazo[1,2-a]pyrimidin-3-ylmethyl]-amine] | < 100 nM |
| CCCN(Cc1c(C(F)(F)F)nc2n(-c3c(C)cc(C)cc3C)c3ccccc3n12)CC1CC1 [Example 148, Cyclopropylmethyl-propyl-[2-trifluoromethyl-8-(2,4,6-trimethyl-phenyl)-8H-1,3a,8-triaza-cyclopenta[α]inden-3-ylmethyl]-amine] | < 100 nM |
